From PubChem BioAssay (NCI)
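Five concentrations, 48 hours, 96-well plates. At the TGI there is no net growth.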

Experiments:
Test in all cases: inhibition of tumour cell growth, NCI panel, 48 h
U251 CNS = system: U251 CNS
MDA-MB-435 = system: MDA-MB-435
SK-MEL-5 melanoma = system: SK-MEL-5 melanoma
COLO 205 colon = system: COLO 205 colon
SK-MEL-28 melanoma = system: SK-MEL-28 melanoma
SF-295 CNS = system: SF-295 CNS
M14 melanoma = system: M14 melanoma
OVCAR-8 ovarian = system: OVCAR-8 ovarian
MOLT-4 leukemia = system: MOLT-4 leukemia
A498 renal = system: A498 renal
SW-620 colon = system: SW-620 colon
RPMI-8226 leukemia = system: RPMI-8226 leukemia
SNB-75 CNS = system: SNB-75 CNS
HL-60(TB) leukemia = system: HL-60(TB) leukemia
HS 578T breast = system: HS 578T breast
HCT-116 colon = system: HCT-116 colon
MDA-MB-231 breast = system: MDA-MB-231 breast
LOX IMVI melanoma = system: LOX IMVI melanoma
PC-3 prostate = system: PC-3 prostate
CCRF-CEM leukemia = system: CCRF-CEM leukemia
OVCAR-5 ovarian = system: OVCAR-5 ovarian
786-0 renal = system: 786-0 renal
HOP-62 NSCLC = system: HOP-62 NSCLC
SR leukemia = system: SR leukemia
HCT-15 colon = system: HCT-15 colon
TK-10 renal = system: TK-10 renal
NCI/ADR-RES ovarian = system: NCI/ADR-RES ovarian
IGROV1 ovarian = system: IGROV1 ovarian
EKVX NSCLC = system: EKVX NSCLC
SN12C renal = system: SN12C renal
NCI-H522 lung = system: NCI-H522 lung
MCF7 breast = system: MCF7 breast
KM12 colon = system: KM12 colon
UACC-62 melanoma = system: UACC-62 melanoma
HT29 colon = system: HT29 colon
ACHN renal = system: ACHN renal
NCI-H226 lung = system: NCI-H226 lung
SK-MEL-2 melanoma = system: SK-MEL-2 melanoma
SF-268 CNS = system: SF-268 CNS
OVCAR-3 ovarian = system: OVCAR-3 ovarian
OVCAR-4 ovarian = system: OVCAR-4 ovarian
SK-OV-3 ovarian = system: SK-OV-3 ovarian
HOP-92 NSCLC = system: HOP-92 NSCLC
MDA-N = system: MDA-N
UO-31 renal = system: UO-31 renal
A549 NSCLC = system: A549 NSCLC
MALME-3M melanoma = system: MALME-3M melanoma
DU-145 prostate = system: DU-145 prostate
SNB-19 CNS = system: SNB-19 CNS
NCI-H23 lung = system: NCI-H23 lung
K-562 leukemia = system: K-562 leukemia

CN(C)CCNC(=O)c1cccc2c(NC(CCCN=C(N)N)C(=O)O)c3ccccc3nc12 (stereo unspecified)
TGI (U251 CNS): > 100 µM | TGI (MDA-MB-435): 41.6 µM | TGI (SK-MEL-5 melanoma): > 100 µM | TGI (COLO 205 colon): > 100 µM | TGI (SK-MEL-28 melanoma): 89.2 µM | TGI (SF-295 CNS): 41.9 µM | TGI (M14 melanoma): > 100 µM | TGI (OVCAR-8 ovarian): 30.5 µM | TGI (MOLT-4 leukemia): > 100 µM | TGI (A498 renal): 61.3 µM | TGI (SW-620 colon): > 100 µM | TGI (RPMI-8226 leukemia): > 100 µM | TGI (SNB-75 CNS): 34.5 µM | TGI (HL-60(TB) leukemia): > 100 µM | TGI (HS 578T breast): 33.2 µM | TGI (HCT-116 colon): 67.8 µM | TGI (MDA-MB-231 breast): > 100 µM | TGI (LOX IMVI melanoma): > 100 µM | TGI (PC-3 prostate): > 100 µM | TGI (CCRF-CEM leukemia): > 100 µM | TGI (OVCAR-5 ovarian): > 100 µM | TGI (786-0 renal): > 100 µM | TGI (HOP-62 NSCLC): 90.8 µM | TGI (SR leukemia): > 100 µM | TGI (HCT-15 colon): > 100 µM | TGI (TK-10 renal): > 100 µM | TGI (NCI/ADR-RES ovarian): 25.1 µM | TGI (IGROV1 ovarian): 64.7 µM | TGI (EKVX NSCLC): 30.1 µM | TGI (SN12C renal): > 100 µM | TGI (NCI-H522 lung): 29.5 µM | TGI (MCF7 breast): > 100 µM | TGI (KM12 colon): 61.5 µM | TGI (UACC-62 melanoma): 60 µM | TGI (HT29 colon): 14.1 µM | TGI (ACHN renal): > 100 µM | TGI (NCI-H226 lung): 22.8 µM | TGI (SK-MEL-2 melanoma): 38.4 µM | TGI (SF-268 CNS): 27.7 µM | TGI (OVCAR-3 ovarian): > 100 µM | TGI (OVCAR-4 ovarian): 27.7 µM | TGI (SK-OV-3 ovarian): > 100 µM | TGI (HOP-92 NSCLC): 51.1 µM | TGI (MDA-N): > 100 µM | TGI (UO-31 renal): > 100 µM | TGI (A549 NSCLC): > 100 µM | TGI (MALME-3M melanoma): 23.4 µM | TGI (DU-145 prostate): > 100 µM | TGI (SNB-19 CNS): 47 µM | TGI (NCI-H23 lung): 30.5 µM | TGI (K-562 leukemia): > 100 µM
